Assay results published in patent US12636376B2, “Methods and compositions for use of growth factor antibodies in combination with non-tyrosine targeting kinase inhibitors” (In3Bio Ltd., priority 2019, dated 2026).

Key:
[1] = cited from earlier work
[2] = system: pEGFR, pAkt, pErk½ signaling in H508 cells; assay: Western blot of pEGFR, pAkt, pErk½ signaling, 2 hour incubation, H508 cells; format: cell-based; details: 2 hour incubation with EGF, FIG. 20
[3] = patients taking Alpelisib; cited from earlier work

CC(=O)Nc1cccc(-n2c(=O)n(C3CC3)c(=O)c3c(Nc4ccc(I)cc4F)n(C)c(=O)c(C)c32)c1 [Trametinib, N-[3-[3-cyclopropyl-5-(2-fluoro-4-iodoanilino)-6,8-dimethyl-2,4,7-trioxopyrido[4,3-d]pyrimidin-1-yl]phenyl]acetamide]
Elimination half-life ([1]; human, in vivo): 93.6 to 115 h | peak plasma concentration occurred post-dose (Tmax) ([1]; oral administration, patients with BRAF V600 mutation-positive melanoma): 1.5 h | bioavailability ([1]; single 2 mg oral dose): 72%

COC(=O)N[C@@H](C)CNc1nccc(-c2cn(C(C)C)nc2-c2cc(Cl)cc(NS(C)(=O)=O)c2F)n1 [Encorafenib, methyl N-[(2S)-1-[[4-[3-[5-chloro-2-fluoro-3-(methanesulfonamido)phenyl]-1-propan-2-ylpyrazol-4-yl]pyrimidin-2-yl]amino]propan-2-yl]carbamate]
median Tmax ([1]; after oral administration): 2 h | dose absorbed ([1]; oral administration): At least 86%

Cc1nc(NC(=O)N2CCC[C@H]2C(N)=O)sc1-c1ccnc(C(C)(C)C(F)(F)F)c1 [Alpelisib, (2S)-1-N-[4-methyl-5-[2-(1,1,1-trifluoro-2-methylpropan-2-yl)pyridin-4-yl]-1,3-thiazol-2-yl]pyrrolidine-1,2-dicarboxamide]
pAkt [2]: inhibit pAkt | pEGFR or pErk½ signaling [2]: do not affect | dose dependent benefit from treatment: advantage of 300 mg once daily over 150 mg twice daily [3]: 22% | dose dependent benefit from treatment: advantage of a 200 mg daily dose over a 100 mg dose [3]: 51%
